Measurements as given in PubChem BioAssay (NCI).
Several values for one entry are separate records, joined by “and”; a condition that tells them apart may be missing. Identical values can stand only once.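 1) Cells in 96-well plates. 2) Compound, 48 h, 5 concentrations. 3) Linear interpolation between surrounding doses. 4) Unreached endpoint = highest concentration. GI50: concentration for 50% inhibition of growth. TGI is the concentration that stops growth completely.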 *1 amine or outer side, *2 acyl side, *3 side chain or, on linkers, in order; H or OH if unused. Where a SMILES comes first, the peptide text is derived from it. Bridges are numbered along the chain shown (N, C = ends). Roman numbers before positions name the chains, in order. [ ]: non-standard residue; d: D form. Actinocin(9to1) = Cc1c2oc3c(C)ccc(C(=O)[*:1])c3nc-2c(C(=O)[*:2])c(N)c1=O; NMeT = CN[CH](C(=O)O)[CH](C)O; Sar = CNCC(=O)O

Legend:
Assay in all cases: growth of human tumour cells (NCI), 48 h
786-0 renal = tested on: 786-0 renal
A498 renal = tested on: A498 renal
HCT-15 colon = tested on: HCT-15 colon
HL-60(TB) leukemia = tested on: HL-60(TB) leukemia
HOP-92 NSCLC = tested on: HOP-92 NSCLC
HS 578T breast = tested on: HS 578T breast
NCI-H23 lung = tested on: NCI-H23 lung
OVCAR-3 ovarian = tested on: OVCAR-3 ovarian
U251 CNS = tested on: U251 CNS
UACC-257 melanoma = tested on: UACC-257 melanoma

Structure (SMILES)	GI50 (786-0 renal)	TGI (786-0 renal)	GI50 (A498 renal)	TGI (A498 renal)	GI50 (HCT-15 colon)	TGI (HCT-15 colon)	GI50 (HL-60(TB) leukemia)	TGI (HL-60(TB) leukemia)	GI50 (HOP-92 NSCLC)	TGI (HOP-92 NSCLC)	GI50 (HS 578T breast)	TGI (HS 578T breast)	GI50 (NCI-H23 lung)	TGI (NCI-H23 lung)	GI50 (OVCAR-3 ovarian)	TGI (OVCAR-3 ovarian)	GI50 (U251 CNS)	TGI (U251 CNS)	GI50 (UACC-257 melanoma)	TGI (UACC-257 melanoma)
Cc1ccc2c(-c3ccnc(Nc4ccccc4)n3)c(-c3ccc(F)cc3)nn2n1	4.84 µM	20.8 µM	4.78 µM	21.5 µM	5.58 µM	> 25 µM	9.56 µM	> 25 µM	3.33 µM	> 25 µM	8.51 µM	> 25 µM	8.25 µM	> 25 µM	4.98 µM	> 22.8 µM	9.8 µM	> 25 µM	6.85 µM	15.1 µM
C#CC1(OC(C)=O)CCC2C3CC=C4C=C(OC(C)=O)CCC4(C)C3CCC21C (stereo unspecified)		85.5 µM		> 100 µM		62.5 µM		> 100 µM		32.9 µM		> 100 µM		47.1 µM		41.5 µM		38.9 µM		35.3 µM
Cc1c2oc3c(C)ccc(C(=O)NC4C(=O)NC(C(C)C)C(=O)N5CCCC5C(=O)N(C)CC(=O)N(C)C(C(C)O)C(=O)OC4C)c3nc-2c(C(=O)NC2C(=O)NC(C(C)C)C(=O)N3CCCC3C(=O)N(C)CC(=O)N(C)C(C(C)O)C(=O)OC2C)c(N)c1=O (stereo unspecified) (I: TVP[Sar][NMeT] / II: TVP[Sar][NMeT]; ester I:1-I:C, II:1-II:C; linker I:N-II:N via Actinocin(9to1); configuration not given here)	1.25 µM and 0.61 µM	> 100 µM	0.327 µM and > 1 µM	2.33 µM and > 1 µM	14.1 µM and > 1 µM	> 100 µM	3 µM and > 1 µM	28.1 µM and > 1 µM		> 71.4 µM		> 27.1 µM		18.3 µM and > 1 µM	2.23 µM and > 1 µM	16.6 µM and > 1 µM		7.27 µM and > 1 µM	2.09 µM and > 1 µM	25.1 µM and > 1 µM
Cc1cc(O)cc2c1[C@]1(C)CCC3C(C)(C)CCC[C@]3(C)[C@H]1C2 (stereo partly specified)	19.4 µM	34.3 µM	23.2 µM	39.1 µM	19.9 µM	38.1 µM	32.4 µM	> 100 µM	18.4 µM	35.3 µM	22.6 µM	44.6 µM	22.5 µM	42 µM	19.2 µM	33.5 µM	19.2 µM	33.5 µM	23.6 µM	41.3 µM
CNC/C(Cl)=N/S(=O)(=O)c1ccc(C)cc1		25.2 µM		54.4 µM		> 100 µM				51.1 µM		> 100 µM		26.2 µM		25.5 µM		20.5 µM		25.4 µM
C/C(=N\Nc1cc(C)c2ccccc2n1)c1ccccn1	0.135 µM	1.27 µM	0.284 µM	3.04 µM	< 0.0493 µM	1.81 µM	< 0.0365 µM	0.155 µM			1.91 µM	16.2 µM	0.172 µM	8.49 µM	< 0.0194 µM	3.51 µM	0.0368 µM	1.16 µM	0.0874 µM	0.452 µM
CC1(C)CC2=C(Sc3ccccc3N2)C(=O)C1C(=O)C(=O)Nc1cccc([N+](=O)[O-])c1 (stereo unspecified)		> 100 µM		> 100 µM		> 100 µM		> 100 µM		> 100 µM		> 100 µM		> 100 µM		> 100 µM		> 100 µM		> 100 µM
CC(C)C[C@H](NC(=O)Cn1ccc(NCc2ccccc2)cc1=O)B(O)O	2.02 µM	> 40.1 µM	0.234 µM	1.59 µM	2.62 µM	> 41.6 µM	0.439 µM	10.7 µM	2.39 µM	8.35 µM	3.33 µM	85.3 µM	5.01 µM	> 100 µM	0.537 µM	3.12 µM	6.3 µM	> 100 µM	0.961 µM	4.73 µM
Cc1ccc(NC2=C(Cl)C(=O)N(Cc3ccc(Cl)cc3)C2=O)cc1O	0.753 µM	18.8 µM	11.9 µM	25.9 µM			54.8 µM	> 100 µM			16.4 µM	75.8 µM	5.56 µM	23.7 µM	8.88 µM	38.5 µM	4.88 µM	> 100 µM	13 µM	28.7 µM
Cc1cc(=O)oc2c(C)c(O)ccc12		> 100 µM		> 100 µM		> 100 µM		> 100 µM		> 100 µM		> 100 µM		> 100 µM		> 100 µM		> 100 µM		> 100 µM
COc1cc2ncn(-c3cc(O[C@@H](C)c4ccccc4Cl)c(C(N)=O)s3)c2cc1OC	4.43 µM	> 25 µM	1.08 µM	13.8 µM	0.743 µM	> 25 µM	0.728 µM	2.86 µM	4.67 µM	> 25 µM	2.11 µM	13.4 µM	1.57 µM	> 25 µM	0.513 µM	> 17.4 µM	1.84 µM	> 25 µM	3.1 µM	> 21.9 µM
C=C(CN1CCN(c2cccc(C(F)(F)F)n2)CC1)c1ccc(C(=O)Nc2ccccc2N)cc1	1.97 µM and 0.705 µM	70 µM and 14 µM	0.875 µM and 0.261 µM		0.918 µM and 0.404 µM	> 100 µM	0.322 µM and 0.297 µM	1 µM and 2.13 µM	2 µM	43.9 µM	0.448 µM and 0.194 µM		14.1 µM and 1.8 µM	> 100 µM	0.258 µM and 0.261 µM	1.12 µM and 0.982 µM	1.16 µM and 0.429 µM	34.4 µM and 12.8 µM		> 100 µM
Cc1cccc(C)c1NC(=O)C(=O)CC(=O)/C=C/c1ccccc1		> 100 µM		> 100 µM		> 100 µM		> 100 µM		> 100 µM		> 100 µM		> 100 µM		> 100 µM		> 100 µM		> 100 µM
Cc1ccc(Cc2cnc(NC(=O)/C=C/c3cccc(C)c3)s2)cc1	0.389 µM	4.04 µM	0.277 µM	3.14 µM	0.049 µM	> 96 µM	0.0933 µM	0.559 µM	0.0793 µM	> 57 µM	0.212 µM	5.86 µM	0.322 µM	> 50.1 µM	0.0634 µM	0.725 µM	0.144 µM	4.97 µM	> 42.3 µM	> 100 µM
CC(=O)N1C/C(=C/c2ccc(Cl)cc2)C(=O)/C(=C/c2ccc(Cl)cc2)C1	0.575 µM	1.87 µM	1.41 µM	2.89 µM	0.446 µM	1.52 µM	0.924 µM	3.95 µM	1.52 µM	4.06 µM	1.43 µM	5.24 µM	1.5 µM	3.67 µM	0.583 µM	1.79 µM	0.337 µM	1.18 µM	1.52 µM	2.97 µM
C=C1C(=O)O[C@H]2[C@H]1CC/C(COC(=O)C(=O)c1cn(C)c3ccc(Cl)cc13)=C\CC[C@@]1(C)O[C@@H]21	1.2 µM	2.53 µM	2.17 µM	3.86 µM	0.209 µM	0.5 µM	1.25 µM	4.09 µM	1.72 µM	3.62 µM	3.14 µM	17.6 µM	1.39 µM	3.05 µM	0.315 µM	1.03 µM	1.79 µM	3.38 µM	1.65 µM	3.55 µM
O=C1CC(=O)N(C(=O)c2nn(-c3ccc(Cl)cc3)cc2O)N1	3.76 µM	> 64.5 µM			0.486 µM	> 100 µM	0.751 µM	4.08 µM	0.508 µM	> 100 µM	0.136 µM	> 100 µM	0.493 µM	> 100 µM	1.31 µM	6.16 µM	0.147 µM	> 100 µM	0.8 µM	
O=S(=O)(NCCCNc1nccc(-c2c(-c3ccc(F)c(O)c3)nc3sccn23)n1)c1ccc(F)cc1	3.35 µM	> 100 µM	2.86 µM	6.81 µM	2.42 µM	10.8 µM	1.86 µM	5.26 µM	1.46 µM	6.24 µM	2.62 µM	7.07 µM	2.31 µM	7.39 µM			3.47 µM	> 100 µM	0.262 µM	2.19 µM
O=C1NC(=O)C(c2ccccc2Cl)=C1Nc1cc(Cl)c(O)c(Cl)c1	23.7 µM	> 25 µM	> 25 µM	> 25 µM	15 µM	> 25 µM	9.75 µM	> 25 µM			10.9 µM	> 25 µM			9.7 µM	24.9 µM	13.3 µM	> 25 µM		
c1ccc2c(NCCCCCCNc3c4ccccc4nc4ccccc34)c3ccccc3nc2c1		2.08 µM		2.83 µM		16.7 µM				1.97 µM		3.05 µM		2.33 µM		2.21 µM		2.59 µM		8.28 µM
CCOP(=O)(OCC)/C(=C/NC(=S)c1ccncc1)C(=O)OC		> 100 µM				> 100 µM		> 100 µM		> 100 µM		> 100 µM		> 100 µM		> 100 µM		> 100 µM		> 100 µM
O=C(CC(C(=O)c1cccs1)c1cccs1)c1ccsc1 (stereo unspecified)		> 100 µM		> 100 µM		> 100 µM		95 µM				> 100 µM		> 100 µM				> 100 µM		> 100 µM
